# According to US8563542B2 (Cyclacel Limited, priority 2007, dated 2013):
# How the values were obtained:
# PLK1 = PLK1 (Homo sapiens, UniProt P53350); assay: PLK1 protein kinase assay (CDC25C phosphorylation, [γ-32P]-ATP); format: biochemical; conditions: Table 2, PLK1 IC50; class symbols; read-out: PLK1 IC50
# AA = target: T1, AA (Homo sapiens, UniProt O14965); assay: AA IC50 (Table 1; no method given); format: biochemical; conditions: Table 2, AurA IC50; class symbols; read-out: AurA IC50
# T1 sequence (O14965 1-403): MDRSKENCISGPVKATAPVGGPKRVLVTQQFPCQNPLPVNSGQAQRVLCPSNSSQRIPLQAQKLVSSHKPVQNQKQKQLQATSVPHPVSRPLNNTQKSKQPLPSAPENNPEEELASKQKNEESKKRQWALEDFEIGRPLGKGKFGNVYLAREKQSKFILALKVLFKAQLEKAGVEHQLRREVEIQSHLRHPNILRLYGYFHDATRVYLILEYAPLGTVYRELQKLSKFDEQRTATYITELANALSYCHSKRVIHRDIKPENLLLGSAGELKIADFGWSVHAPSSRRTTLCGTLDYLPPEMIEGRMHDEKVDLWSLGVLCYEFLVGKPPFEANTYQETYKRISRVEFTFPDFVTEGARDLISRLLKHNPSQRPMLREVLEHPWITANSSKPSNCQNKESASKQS
# Chain of PLK1 (P53350 whole entry): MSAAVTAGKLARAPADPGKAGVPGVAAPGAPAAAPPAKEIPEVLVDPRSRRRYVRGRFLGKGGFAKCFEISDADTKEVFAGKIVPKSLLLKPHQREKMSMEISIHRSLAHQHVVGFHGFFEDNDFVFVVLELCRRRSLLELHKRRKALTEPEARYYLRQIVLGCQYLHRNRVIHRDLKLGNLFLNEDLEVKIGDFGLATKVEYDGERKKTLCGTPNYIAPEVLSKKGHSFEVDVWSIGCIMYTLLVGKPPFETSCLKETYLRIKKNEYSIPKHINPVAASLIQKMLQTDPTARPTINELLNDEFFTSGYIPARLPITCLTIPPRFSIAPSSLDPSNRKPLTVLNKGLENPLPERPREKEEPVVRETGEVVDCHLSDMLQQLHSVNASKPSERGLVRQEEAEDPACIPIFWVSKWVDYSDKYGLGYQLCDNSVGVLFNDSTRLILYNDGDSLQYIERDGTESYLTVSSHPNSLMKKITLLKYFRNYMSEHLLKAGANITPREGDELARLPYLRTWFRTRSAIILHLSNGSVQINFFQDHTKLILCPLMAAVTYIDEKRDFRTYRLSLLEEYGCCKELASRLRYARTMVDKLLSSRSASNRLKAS
Compound,IC50 (PLK1) [nM],IC50 (AA) [nM]
"Cc1cc2cc(Nc3ncc4c(n3)N(C3CCCC3)CCC(=O)N4C)ccc2[nH]1 [compound 125, 9-Cyclopentyl-5-methyl-2-(2-methyl-1H-indol-5-ylamino)-5,7,8,9-tetrahydro-pyrimido[4,5-b][1,4]diazepin-6-one]",< 1000,< 100
"CN1C(=O)CCN(C2CCCC2)c2nc(NCc3cccc4c3OCCO4)ncc21 [compound 128, 9-Cyclopentyl-2-[(2,3-dihydro-benzo[1,4]dioxin-5-ylmethyl)-amino]-5-methyl-5,7,8,9-tetrahydro-pyrimido[4,5-b][1,4]diazepin-6-one]",< 1000,< 10000
"CN1C(=O)CCN(C2CCCC2)c2nc(Nc3ccc4cc[nH]c4c3)ncc21 [compound 130, 9-Cyclopentyl-2-(1H-indo1-6-ylamino)-5-methyl-5,7,8,9-tetrahydro-pyrimido[4,5-b][1,4]diazepin-6-one]",< 10000,< 1000
"CN1C(=O)CCN(C2CCCC2)c2nc(NCc3ccc(-c4csnn4)cc3)ncc21 [compound 132, 9-Cyclopentyl-5-methyl-2-(4-[1,2,3]thiadiazol-4-yl-benzylamino)-5,7,8,9-tetrahydro-pyrimido[4,5-b][1,4]diazepin-6-one]",< 10000,< 10000
"Cc1cccc(Nc2ncc3c(n2)N(C2CCCC2)CCC(=O)N3C)c1 [compound 137, 9-Cyclopentyl-5-methyl-2-m-tolylamino-5,7,8,9-tetrahydro-pyrimido[4,5-b][1,4]diazepin-6-one]",< 10000,< 100
"COc1cccc(Nc2ncc3c(n2)N(C2CCCC2)CCC(=O)N3C)c1 [compound 138, 9-Cyclopentyl-2-(3-methoxy-phenylamino)-5-methyl-5,7.8,9-tetrahydro-pyrimido[4,5-b][1,4]diazepin-6-one]",< 10000,< 1000
"CN1C(=O)CCN(C2CCCC2)c2nc(Nc3ccc4[nH]ncc4c3)ncc21 [compound 139, 9-Cyclopentyl-2-(1H-indazol-5-ylamino)-5-methyl-5,7,8,9-tetrahydro-pyrimido[4,5-b][1,4]diazepin-6-one]",< 1000,< 100
"Cc1c(Nc2ncc3c(n2)N(C2CCCC2)CCC(=O)N3C)cccc1C(=O)NC1CCN(C)CC1 [compound 140, 3-(9-Cyclopentyl-5-methyl-6-oxo-6,7,8,9-tetrahydro-5H-pyrimido[4,5-b][1,4]diazepin-2-ylamino)-2-methyl-N-(1-methyl-piperidin-4-yl)-benzamide]",< 10000,< 10000
CN1C(=O)CCN(C2CCCC2)c2nc(Nc3cccc(S(=O)(=O)N4CCNCC4)c3)ncc21 [compound 146],< 10000,< 10000
"COc1cc(C(=O)NCCCCO)ccc1Nc1ncc2c(n1)N(C1CCCC1)CCC(=O)N2C [compound 151, 4-(9-Cyclopentyl-5-methyl-6-oxo-6,7,8,9-tetrahydro-5H-pyrimido[4,5-b][1,4]diazepin-2-ylamino)-N-(4-hydroxy-butyl)-3-methoxy-benzamide]",< 1000,< 10000
"CN1C(=O)CCN(C2CCCC2)c2nc(Nc3ccc(CCC(=O)O)cc3)ncc21 [compound 170, 3-[4-(9-Cyclopentyl-5-methyl-6-oxo-6,7,8,9-tetrahydro-5H-pyrimido[4,5-b][1,4]diazepin-2-ylamino)-phenyl]-propionic acid]",< 10000,< 100
"CC(=O)Nc1ccc(Nc2ncc3c(n2)N(C2CCCC2)CCC(=O)N3C)cc1 [compound 171, N-[4-(9-Cyclopentyl-5-methyl-6-oxo-6,7,8,9-tetrahydro-5H-pyrimido[4,5-b][1,4]diazepin-2-ylamino)-phenyl]-acetamide]",< 10000,< 100
"CN1C(=O)CCN(C2CCCC2)c2nc(Nc3ccc(CC(=O)O)cc3)ncc21 [compound 172, [4-(9-Cyclopentyl-5-methyl-6-oxo-6,7,8,9-tetrahydro-5H-pyrimido[4,5-b][1,4]diazepin-2-ylamino)-phenyl]-acetic acid]",< 10000,< 100
"CN1C(=O)CCN(C2CCCC2)c2nc(Nc3ccc4c(c3)CC(=O)N4)ncc21 [compound 173, 9-Cyclopentyl-5-methyl-2-(2-oxo-2,3-dihydro-1H-indo1-5-ylamino)-5,7,8,9-tetrahydro-pyrimido[4,5-b][1,4]diazepin-6-one]",< 10000,< 100
"Cc1cc(C(=O)O)ccc1Nc1ncc2c(n1)N(C1CCCC1)CCC(=O)N2C [compound 174, 4-(9-Cyclopentyl-5-methyl-6-oxo-6,7,8,9-tetrahydro-5H-pyrimido[4,5-b][1,4]diazepin-2-ylamino)-3-methyl-benzoic acid]",< 1000,< 10000
"CN1C(=O)CCN(C2CCCC2)c2nc(Nc3ccc(C(=O)NC4CC4)cc3)ncc21 [compound 176, 4-(9-Cyclopentyl-5-methyl-6-oxo-6,7,8,9-tetrahydro-5H-pyrimido[4,5-b][1,4]diazepin-2-ylamino)-N-cyclopropyl-benzamide]",< 1000,< 100
"CN1C(=O)CCN(C2CCCC2)c2nc(Nc3cccc(CN4CCS(=O)(=O)CC4)c3)ncc21 [compound 177, 9-Cyclopentyl-2-[3-(1,1-dioxo-thiomorpholin-4-ylmethyl)-phenylamino]-5-methyl-5,7,8,9-tetrahydro-pyrimido[4,5-b][1,4]diazepin-6-one]",< 1000,< 100
"CN1C(=O)CCN(C2CCCC2)c2nc(Nc3ccc(NC(=O)C4CC4)cc3)ncc21 [compound 178, Cyclopropanecarboxylic acid [4-(9-cyclopentyl-5-methyl-6-oxo-6,7,8,9-tetrahydro-5H-pyrimido[4,5-b][1,4]diazepin-2-ylamino)-phenyl]-amide]",< 1000,< 100
"Cc1cc(Nc2ncc3c(n2)N(C2CCCC2)CCC(=O)N3C)ccc1NC(=O)C1CC1 [compound 179, Cyclopropanecarboxylic acid [4-(9-cyclopentyl-5-methyl-6-oxo-6,7,8,9-tetrahydro-5H-pyrimido[4,5-b][1,4]diazepin-2-ylamino)-2-methyl-phenyl]-amide]",< 10000,< 100
"CN1CCC(NC(=O)CCc2ccc(Nc3ncc4c(n3)N(C3CCCC3)CCC(=O)N4C)cc2)CC1 [compound 180, 3-[4-(9-Cyclopentyl-5-methyl-6-oxo-6,7,8,9-tetrahydro-5H-pyrimido[4,5-b][1,4]diazepin-2-ylamino)-phenyl]-N-(1-methyl-piperidin-4-yl)-propionamide]",< 10000,< 100
"CN1CCC(NC(=O)Cc2ccc(Nc3ncc4c(n3)N(C3CCCC3)CCC(=O)N4C)cc2)CC1 [compound 181, 2-[4-(9-Cyclopentyl-5-methyl-6-oxo-6,7,8,9-tetrahydro-5H-pyrimido[4,5-b][1,4]diazepin-2-ylamino)-phenyl]-N-(1-methyl-piperidin-4-yl)-acetamide]",< 10000,< 100
"CCc1cc(C(=O)O)ccc1Nc1ncc2c(n1)N(C1CCCC1)CCC(=O)N2C [compound 192, 4-(9-Cyclopentyl-5-methyl-6-oxo-6,7,8,9-tetrahydro-5H-pyrimido[4,5-b][1,4]diazepin-2-ylamino)-3-ethyl benzoic acid]",< 10000,< 10000
"CN1CCC(NC(=O)c2ccc(Nc3ncc4c(n3)N(C3CCCC3)CCC(=O)N4C)c(F)c2)CC1 [compound 215, 4-(9-Cyclopentyl-5-methyl-6-oxo-6,7,8,9-tetrahydro-5H-pyrimido[4,5-b][1,4]diazepin-2-ylamino)-3-fluoro-N-(1-methyl-piperidin-4-yl)-benzamide]",< 100,< 10000
"CN1C(=O)C2(CC2)CN(C2CCCC2)c2nc(Nc3ccc4[nH]ncc4c3)ncc21 [compound 227, 9-Cyclopentyl-2-(1H-indazol-5-ylamino)-5-methyl-5,7,8,9-tetrahydro-pyrimido[4,5-b][1,4]diazepin-3,1′-cyclopropane-6-one]",< 100,< 1000
"CC(=O)Nc1ccc(Nc2ncc3c(n2)N(C2CCCC2)CCC(=O)N3C)cc1C [compound 285, N-[4-(9-Cyclopentyl-5-methyl-6-oxo-6,7,8,9-tetrahydro-5H-pyrimido[4,5-b][1,4]diazepin-2-ylamino)-2-methyl-phenyl]-acetamide]",< 10000,< 100
"Cc1cc(Nc2ncc3c(n2)N(C2CCCC2)CCC(=O)N3C)ccc1NC(=O)C(C)(C)C [compound 287, N-[4-(9-Cyclopentyl-5-methyl-6-oxo-6,7,8,9-tetrahydro-5H-pyrimido[4,5-b][1,4]diazepin-2-ylamino)-2-methyl-phenyl]-2,2-dimethyl-propionamide]",< 10000,< 100
"CN1C(=O)CCN(C2CCCC2)c2nc(Nc3ccc4c(c3)C=CS4(=O)=O)ncc21 [compound 289, 9-Cyclopentyl-2-(1,1-dioxo-1H-1lambda*6*- benzo[b]thiophen-5-ylamino)-5-methyl-5,7,8,9-tetrahydro-pyrimido[4,5-b][1,4]diazepin-6-one]",< 1000,< 100
"Cc1ccc(N2CCC(=O)N(C)c3cnc(Nc4ccc5c(c4)CS(=O)(=O)C5)nc32)cc1 [compound 290, 2-(2,2-Dioxo-2,3-dihydro-1H-2lambda*6*- benzo[c]thiophen-5-ylamino)-5-methyl-9-p-tolyl-5,7,8,9-tetrahydro-pyrimido[4,5-b][1,4]diazepin-6-one]",< 10000,< 100
